row,Compound,melting point
1,Cc1ccc(-c2c(C#N)nn(-c3c(Cl)cc(C(F)(F)F)cc3Cl)c2N)cc1,243 to 244 °C
2,N#Cc1nn(-c2c(Cl)cc(C(F)(F)F)cc2Cl)c(N)c1-c1ccccc1,198 to 199 °C
3,N#Cc1nn(-c2c(Cl)cc(C(F)(F)F)cc2Cl)c(N)c1-c1cccc([N+](=O)[O-])c1,212 to 214 °C
4,N#Cc1nn(-c2c(Cl)cc(C(F)(F)F)cc2Cl)c(N)c1-c1ccc(Br)cc1,242 to 244 °C
5,N#Cc1nn(-c2c(Cl)cc(C(F)(F)F)cc2Cl)c(N)c1-c1ccc(Cl)cc1,235 to 237 °C
6,N#Cc1nn(-c2c(Cl)cc(C(F)(F)F)cc2Cl)c(N)c1-c1ccc(F)cc1,222 to 223 °C
7,N#Cc1nn(-c2c(Cl)cc(C(F)(F)F)cc2Cl)c(N)c1-c1cc(Cl)cc(Cl)c1,228 to 230 °C
8,N#Cc1nn(-c2c(Cl)cc(C(F)(F)F)cc2Cl)c(N)c1-c1ccc(F)c(Cl)c1,197 to 198 °C
9,COC(=O)c1cccc(-c2c(C#N)nn(-c3c(Cl)cc(C(F)(F)F)cc3Cl)c2N)c1,214 to 216 °C
10,N#Cc1nn(-c2c(Cl)cc(C(F)(F)F)cc2Cl)c(N)c1-c1cccc(N)c1,187 °C
11,COc1ccc(-c2c(C#N)nn(-c3c(Cl)cc(C(F)(F)F)cc3Cl)c2N)cc1,222 °C
12,N#Cc1nn(-c2c(Cl)cc(C(F)(F)F)cc2Cl)c(N)c1-c1ccc2c(c1)OCO2,222 °C
13,COc1ccc(-c2c(C#N)nn(-c3c(Cl)cc(C(F)(F)F)cc3Cl)c2N)cc1OC,250 °C
14,N#Cc1nn(-c2c(Cl)cc(C(F)(F)F)cc2Cl)c(N)c1-c1cccc(F)c1,164 °C
15,N#Cc1nn(-c2c(Cl)cc(C(F)(F)F)cc2Cl)c(N)c1-c1cccc(Cl)c1,161 to 162 °C
16,N#Cc1nn(-c2c(Cl)cc(C(F)(F)F)cc2Cl)c(N)c1-c1ccccc1F,197 °C
17,COc1ccccc1-c1c(C#N)nn(-c2c(Cl)cc(C(F)(F)F)cc2Cl)c1N,193 °C
18,Cc1ccccc1-c1c(C#N)nn(-c2c(Cl)cc(C(F)(F)F)cc2Cl)c1N,199 to 202 °C

row,Compound,melting point
1,N#Cc1nn(-c2c(Cl)cc(C(F)(F)F)cc2Cl)c(N)c1-c1ccccc1C(F)(F)F,210 to 212 °C
2,N#Cc1nn(-c2c(Cl)cc(C(F)(F)F)cc2Cl)c(N)c1-c1ccccc1Cl,192 to 193 °C
3,N#Cc1nn(-c2c(Cl)cc(C(F)(F)F)cc2Cl)c(N)c1-c1cccc2ccccc12,208 °C
4,N#Cc1nn(-c2c(Cl)cc(C(F)(F)F)cc2Cl)c(N)c1-c1cccnc1,265 to 267 °C
5,N#Cc1nn(-c2c(Cl)cc(C(F)(F)F)cc2Cl)c(N)c1-c1ccncc1,266 to 268 °C (dec.)
6,N#Cc1nn(-c2c(Cl)cc(C(F)(F)F)cc2Cl)c(N)c1-c1cccs1,206 to 207 °C
7,N#Cc1nn(-c2c(Cl)cc(C(F)(F)F)cc2Cl)c(N)c1-c1ccsc1,210 to 212 °C
8,N#Cc1nn(-c2c(Cl)cc(C(F)(F)F)cc2Cl)c(N)c1-c1ccoc1,180 to 181 °C
9,N#Cc1nn(-c2c(Cl)cccc2Cl)c(N)c1-c1ccco1,222.6 °C
10,N#Cc1nn(-c2c(Cl)cc(C(F)(F)F)cc2Cl)c(N)c1-c1cc(Br)no1,227 °C
11,Cc1nc(-c2c(C#N)nn(-c3c(Cl)cc(C(F)(F)F)cc3Cl)c2N)cs1,226 to 228 °C
12,N#Cc1nn(-c2c(Cl)cc(C(F)(F)F)cc2Cl)c(N)c1-c1ccc(Br)s1,214 °C
13,N#Cc1nn(-c2c(Cl)cc(C(F)(F)F)cc2Cl)c(N)c1-c1ccc(SC(F)(F)F)s1,162 to 163 °C
14,N#Cc1nn(-c2c(Cl)cc(C(F)(F)F)cc2Cl)c(N)c1-c1onc(Br)c1Br,279 °C
15,N#Cc1nn(-c2c(Cl)cc(C(F)(F)F)cc2Cl)c(N)c1-c1ccoc1[S+]([O-])C(F)(F)F (stereo not drawn),141 to 142 °C
16,N#Cc1nn(-c2c(Cl)cc(C(F)(F)F)cc2Cl)c(N)c1-c1ccc(C(F)(F)F)o1,148 to 151 °C
17,N#Cc1nn(-c2c(Cl)cc(C(F)(F)F)cc2Cl)c(N)c1-c1cc(Cl)oc1Cl,193 to 194 °C
18,N#Cc1nn(-c2c(Cl)cc(C(F)(F)F)cc2Cl)c(N)c1C1CC1(Br)Br (stereo not drawn),178 to 179 °C

# Reference: patent US20050096354A1 (published 2005)
